Columns and labels:
Test in all cases: relative viability (nuclei count vs DMSO), 5 days (fraction); higher = more cells survive
Ruxolitinib + Trametinib = compound: N#CC[C@H](C1CCCC1)n1cc(-c2ncnc3[nH]ccc23)cn1 [Ruxolitinib] + CC(=O)Nc1cccc(-n2c(=O)n(C3CC3)c(=O)c3c(Nc4ccc(I)cc4F)n(C)c(=O)c(C)c32)c1 [Trametinib] (partner 0.02 µM)
How it was run: (§1)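 Lung cancer cell lines in 1536-well plates got either a single drug or a fixed anchor-drug dose together with five library-drug doses (not always all listed) in √10 steps, by pin tool, on the day after seeding. Nuclei were counted after 5 days, and relative viability is the treated-to-vehicle ratio of nuclei counts. Values are medians of duplicate plates.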

Vismodegib + Alpelisib = compound: CS(=O)(=O)c1ccc(C(=O)Nc2ccc(Cl)c(-c3ccccn3)c2)c(Cl)c1 [Vismodegib] + Cc1nc(NC(=O)N2CCC[C@H]2C(N)=O)sc1-c1ccnc(C(C)(C)C(F)(F)F)c1 [Alpelisib] (partner 2 µM)
How it was run: as §1

VE-821 + Foretinib = compound: CS(=O)(=O)c1ccc(-c2cnc(N)c(C(=O)Nc3ccccc3)n2)cc1 [VE-821] + COc1cc2c(Oc3ccc(NC(=O)C4(C(=O)Nc5ccc(F)cc5)CC4)cc3F)ccnc2cc1OCCCN1CCOCC1 [Foretinib] (partner 0.25 µM)
How it was run: as §1

Vismodegib + Navitoclax = compound: CS(=O)(=O)c1ccc(C(=O)Nc2ccc(Cl)c(-c3ccccn3)c2)c(Cl)c1 [Vismodegib] + CC1(C)CCC(c2ccc(Cl)cc2)=C(CN2CCN(c3ccc(C(=O)NS(=O)(=O)c4ccc(N[C@H](CCN5CCOCC5)CSc5ccccc5)c(S(=O)(=O)C(F)(F)F)c4)cc3)CC2)C1 [Navitoclax] (partner 0.5 µM)
How it was run: as §1

Row | Cell Line | relative viability (Ruxolitinib + Trametinib; first compound 0.08 µM) | relative viability (Ruxolitinib + Trametinib; first compound 0.253 µM) | relative viability (Ruxolitinib + Trametinib; first compound 0.8 µM) | relative viability (Ruxolitinib + Trametinib; first compound 2.53 µM) | relative viability (Ruxolitinib + Trametinib; first compound 8 µM) | relative viability (Vismodegib + Alpelisib; first compound 0.08 µM) | relative viability (Vismodegib + Alpelisib; first compound 0.253 µM) | relative viability (Vismodegib + Alpelisib; first compound 0.8 µM) | relative viability (Vismodegib + Alpelisib; first compound 2.53 µM) | relative viability (Vismodegib + Alpelisib; first compound 8 µM) | relative viability (VE-821 + Foretinib; first compound 0.08 µM) | relative viability (VE-821 + Foretinib; first compound 0.253 µM) | relative viability (VE-821 + Foretinib; first compound 0.8 µM) | relative viability (VE-821 + Foretinib; first compound 2.53 µM) | relative viability (VE-821 + Foretinib; first compound 8 µM) | relative viability (Vismodegib + Navitoclax; first compound 0.08 µM) | relative viability (Vismodegib + Navitoclax; first compound 0.253 µM) | relative viability (Vismodegib + Navitoclax; first compound 0.8 µM) | relative viability (Vismodegib + Navitoclax; first compound 2.53 µM) | relative viability (Vismodegib + Navitoclax; first compound 8 µM)
1 | NCI-H727 | 0.406 | 0.407 | 0.413 | 0.416 | 0.453 | 0.601 | 0.563 | 0.555 | 0.529 | 0.611 | 1.27 | 0.982 | 0.823 | 0.789 | 0.405 | 0.496 | 0.428 | 0.453 | 0.36 | 0.386
2 | NCI-H838 | 0.554 | 0.44 | 0.477 | 0.217 | 0.185 | 0.904 | 0.952 | 1.09 | 0.978 | 1.02 | 1.21 | 0.946 | 0.892 | 1.13 | 0.877 | 1.1 | 1.23 | 1.11 | 1.21 | 1.18
3 | NCI-H1355 | 0.372 | 0.372 | 0.395 | 0.347 | 0.386 | 0.902 | 0.882 | 0.838 | 0.853 | 0.787 | 1.04 | 0.942 | 0.768 | 1.01 | 0.729 | 0.931 | 1.06 | 0.863 | 0.913 | 0.952
4 | NCI-H1395 | 1.04 | 0.95 | 1.15 | 0.981 | 0.965 | 0.997 | 0.966 | 0.961 | 0.944 | 1.14 | 1.05 | 1.01 | 0.826 | 0.98 | 0.828 | 1.02 | 1.09 | 1.01 | 1.11 | 1.23
5 | NCI-H1437 | 0.528 | 0.632 | 0.732 | 0.564 | 0.455 | 0.972 | 0.901 | 1.06 | 0.961 | 0.987 | 1.3 | 1.25 | 1.16 | 1.34 | 1.24 | 0.945 | 1.08 | 1.09 | 1.07 | 1.1
6 | NCI-H1651 | 0.722 | 0.798 | 0.821 | 0.767 | 0.859 | 0.922 | 0.877 | 1.04 | 0.81 | 1.09 | 0.72 | 0.838 | 0.662 | 0.885 | 1.02 | 0.954 | 0.956 | 0.984 | 0.885 | 1.11
7 | NCI-H1666 | 0.834 | 0.87 | 0.871 | 0.76 | 0.881 | 0.913 | 0.879 | 0.813 | 1.01 | 1.13 | 0.97 | 1.02 | 1.04 | 1.03 | 0.783 | 1.08 | 1.02 | 1.15 | 0.936 | 0.934
8 | NCI-H1734 | 0.66 | 0.647 | 0.635 | 0.462 | 0.607 | 0.651 | 0.586 | 0.661 | 0.63 | 0.719 | 0.972 | 0.854 | 0.805 | 1.02 | 0.722 | 0.878 | 0.835 | 0.846 | 0.77 | 0.897

Source: the supplement of paper PMC10307832
